Data on three compounds can be found in publication PMC6950750, “Newly Discovered Action of HpTx3 from Venom of Heteropoda venatoria on Nav1.7 and Its Pharmacological Implications in Analgesia” (Toxins, 2019).

Bridge positions count the residues as written; N and C are the ends. Peptide text beside a SMILES is read from it.

In series [1] the test system is nociceptive neuron excitability. To be noted: orofacial and other regions in patients; cited from earlier work. The source says:
Kv4 channels are expressed predominately in the somata of small and large diameter nociceptors and the dorsal horn of the spinal cord, and all three Kv4 mRNA isoforms (Kv4.1–4.3) are expressed in whole DRG preparations. Overexpression of various components of the Kv4 complex attenuated DGR excitability and pain phenotypes of animals. The drugs that can increase A-type Kv ...

Series [2] concerns the target T1, Nav1.2 (Rattus norvegicus, UniProt P04775).
T1 construct: expressed in transfected cells; host or cells: HEK293T
Nature of the series: Whole-cell patch-clamp, Nav1.2 currents in HEK293T cells. It is filed as cell-based. The source says: (§1) All the used Nav channel subtype clones (Nav1.2–Nav1.9) and β subunit clones were preserved in our laboratory. cDNAs encoding rat Nav1.2, rat Nav1.3, human Nav1.5, and mouse Nav1.6 were subcloned into the vector pcDNA3.1; cDNA encoding rat Nav1.4 was subcloned into the vector pRGB4; cDNA encoding human Nav1.7 was subcloned into the vector pcDNA3.1-mod; cDNAs encoding rat Nav1.8 and human Nav1.9 were subcloned into the vectors pCMV-HA and pEGFP-N1, respectively. For localizing the binding sites of HpTx3 on the Nav1.7 and therefore probing the its mechanism of action, several chimeras were constructed with a recombination strategy by replacing the extracellular loop S3b–S4 in domain II, domain III, and domain IV of Nav1.7 with the counterpart sequences of Nav1.8, respectively, using the methods described. As a result, three chimeras were prepared, namely, Nav1.7/1.8DIIS3b–S4, Nav1.7/1.8DIII, and Nav1.7/1.8 DIV. […]
(§2) For heterologous expression, the vector plasmids containing wild-type (WT) Nav1.2–Nav1.7 and mutant plasmids were transiently transfected into HEK293T cells (China Center for Type Culture Collection, Wuhan, China) using Lipofectamine 2000 (Invitrogen, Carlsbad, CA, USA) according to the manufacturer’s instructions. […] The cells with green fluorescence were selected for whole-cell patch-clamp analysis 24 h after transfection. […]
On the technique in general: In patch-clamp work, channel activity is measured electrically.

For series [3], the target named is T2, Nav1.3 (Rattus norvegicus, UniProt P08104).
T2 construct: expressed in transfected cells; host or cells: HEK293T
Nature of the series: Whole-cell patch-clamp, Nav1.3 currents in HEK293T cells. In kind it is cell-based.
From the text: as §1, §2

The target of series [4] is T3, Nav1.4 (Rattus norvegicus, UniProt P15390).
T3 construct: expressed in transfected cells; host or cells: HEK293T
T3 sequence (P15390 whole entry): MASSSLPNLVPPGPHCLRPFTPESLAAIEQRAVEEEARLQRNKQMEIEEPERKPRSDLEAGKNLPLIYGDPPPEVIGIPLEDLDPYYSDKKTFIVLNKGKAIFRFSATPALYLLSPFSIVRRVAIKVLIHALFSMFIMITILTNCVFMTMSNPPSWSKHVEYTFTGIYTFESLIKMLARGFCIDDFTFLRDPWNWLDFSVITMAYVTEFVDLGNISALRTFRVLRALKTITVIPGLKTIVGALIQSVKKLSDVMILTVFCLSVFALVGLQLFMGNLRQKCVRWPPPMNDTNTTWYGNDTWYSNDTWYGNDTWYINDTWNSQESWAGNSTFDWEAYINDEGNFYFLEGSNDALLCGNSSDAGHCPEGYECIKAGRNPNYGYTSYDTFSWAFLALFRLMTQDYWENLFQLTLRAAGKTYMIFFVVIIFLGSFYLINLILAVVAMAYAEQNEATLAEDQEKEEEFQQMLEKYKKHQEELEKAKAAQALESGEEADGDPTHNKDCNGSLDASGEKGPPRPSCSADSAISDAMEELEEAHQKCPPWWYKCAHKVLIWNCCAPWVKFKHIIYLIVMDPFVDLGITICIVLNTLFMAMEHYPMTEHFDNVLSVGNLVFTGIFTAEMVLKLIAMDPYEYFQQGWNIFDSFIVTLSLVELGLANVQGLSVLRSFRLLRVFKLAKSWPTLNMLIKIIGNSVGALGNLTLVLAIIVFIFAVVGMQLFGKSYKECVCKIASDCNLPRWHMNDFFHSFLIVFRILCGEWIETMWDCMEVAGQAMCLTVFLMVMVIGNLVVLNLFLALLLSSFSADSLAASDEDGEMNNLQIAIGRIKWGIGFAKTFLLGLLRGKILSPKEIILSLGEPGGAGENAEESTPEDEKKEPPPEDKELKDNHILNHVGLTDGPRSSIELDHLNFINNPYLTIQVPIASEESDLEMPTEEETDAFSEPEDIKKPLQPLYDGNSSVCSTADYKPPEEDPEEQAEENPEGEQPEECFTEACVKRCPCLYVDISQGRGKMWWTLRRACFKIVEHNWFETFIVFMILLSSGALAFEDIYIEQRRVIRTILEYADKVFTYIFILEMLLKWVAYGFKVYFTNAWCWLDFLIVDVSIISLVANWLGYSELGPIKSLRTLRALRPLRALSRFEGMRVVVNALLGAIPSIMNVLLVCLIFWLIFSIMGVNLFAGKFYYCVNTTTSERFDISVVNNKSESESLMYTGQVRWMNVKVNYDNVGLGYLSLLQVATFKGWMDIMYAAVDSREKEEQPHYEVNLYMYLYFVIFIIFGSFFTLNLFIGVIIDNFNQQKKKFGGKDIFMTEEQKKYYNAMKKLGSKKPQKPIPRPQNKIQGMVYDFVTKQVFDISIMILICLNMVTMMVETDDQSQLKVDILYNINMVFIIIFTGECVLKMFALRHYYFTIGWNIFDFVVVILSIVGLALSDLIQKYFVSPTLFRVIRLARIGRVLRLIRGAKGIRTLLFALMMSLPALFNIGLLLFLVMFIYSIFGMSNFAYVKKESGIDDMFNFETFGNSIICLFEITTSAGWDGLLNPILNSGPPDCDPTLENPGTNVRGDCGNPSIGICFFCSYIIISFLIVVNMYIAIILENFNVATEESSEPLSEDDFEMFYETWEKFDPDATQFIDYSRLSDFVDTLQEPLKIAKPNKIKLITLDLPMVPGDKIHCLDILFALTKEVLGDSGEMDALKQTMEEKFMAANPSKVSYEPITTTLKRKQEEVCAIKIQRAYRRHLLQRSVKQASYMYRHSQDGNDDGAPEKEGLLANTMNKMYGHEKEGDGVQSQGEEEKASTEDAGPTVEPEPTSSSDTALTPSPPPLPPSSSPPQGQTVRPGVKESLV
Nature of the series: Whole-cell patch-clamp, Nav1.4 currents in HEK293T cells. It is filed as cell-based.
From the text: as §1, §2

The target in series [5] is T4, Nav1.5 (Homo sapiens, UniProt Q14524).
T4 construct: expressed in transfected cells; host or cells: HEK293T
Nature of the series: cell-based. It is filed as cell-based.
From the text: as §1, §2

In series [6] the target is T5, Nav1.6 (Mus musculus, UniProt Q9WTU3).
T5 construct: expressed in transfected cells; host or cells: HEK293T
Nature of the series: Whole-cell patch-clamp, Nav1.6 currents in HEK293T cells. It is filed as cell-based. To be noted: HEK-293T, 1 μM HpTx3, n = 4–6.
From the text: as §1, §2

Series [7] addresses T6, Nav1.7 (Homo sapiens, UniProt Q15858).
T6 construct: expressed in transfected cells; host or cells: HEK293T
Put plainly: Whole-cell patch-clamp, Nav1.7 currents in HEK293T cells. It is filed as cell-based. To be noted: wild type Nav1.7, HEK293T, mean ± SD, n = 4–6.
From the text: as §1, §2

Series [8] concerns the target T7, Nav1.7 D816N (Homo sapiens, UniProt Q15858, D827N).
T7 construct: expressed in transfected cells; host or cells: HEK293T
Put plainly: Whole-cell patch-clamp, mutant Nav1.7 D816N. It is filed as cell-based. The source says:
All the used Nav channel subtype clones (Nav1.2–Nav1.9) and β subunit clones were preserved in our laboratory. cDNAs encoding rat Nav1.2, rat Nav1.3, human Nav1.5, and mouse Nav1.6 were subcloned into the vector pcDNA3.1; cDNA encoding rat Nav1.4 was subcloned into the vector pRGB4; cDNA encoding human Nav1.7 was subcloned into the vector pcDNA3.1-mod; cDNAs encoding rat Nav1.8 and human Nav1.9 were subcloned into the vectors pCMV-HA and pEGFP-N1, respectively. For localizing the binding sites of HpTx3 on the Nav1.7 and therefore probing the its mechanism of action, several chimeras were constructed with a recombination strategy by replacing the extracellular loop S3b–S4 in domain II, domain III, and domain IV of Nav1.7 with the counterpart sequences of Nav1.8, respectively, using the methods described. As a result, three chimeras were prepared, namely, Nav1.7/1.8DIIS3b–S4, Nav1.7/1.8DIII, and Nav1.7/1.8 DIV. Moreover, the amino acid residues D816 and E818 in the S3b–S4 sequence of Nav1.7 were mutated into N (Nav1.7 D816N) and Q (Nav1.7 […]), respectively.
For heterologous expression, the vector plasmids containing wild-type (WT) Nav1.2–Nav1.7 and mutant plasmids were transiently transfected into HEK293T cells (China Center for Type Culture Collection, Wuhan, China) using Lipofectamine 2000 (Invitrogen, Carlsbad, CA, USA) according to the manufacturer’s instructions. […] The cells with green fluorescence were selected for whole-cell patch-clamp analysis 24 h after transfection.
The whole-cell patch-clamp technique was employed to analyze the effects of HpTx3 on Nav channel subtypes in the transfected HEK293T and ND7/23 cells using an EPC-10 USB patch-clamp amplifier (HEKA, Elektronik, Lambrecht, Germany). […] Data were collected with the PatchMaster software in the HEKA EPC-10 USB patch-clamp system (HEKA Elektronik, Lambrecht, Germany) and analyzed by the software Igo Pro-6.00, Prism (GraphPad Software, La Jolla, CA, USA), Sigmaplot 10.0 (Systat Software, Inc., San Jose, CA, USA), and OriginPro. […]

Series [9] concerns C57BL/6 mice. Put plainly: In vivo toxicity. To be noted: 20 mg/kg i.p., 8 mice. More on the design: species or system mouse (C57BL/6). The method, then: For detecting the potential in vivo toxicity of HpTx3, eight C57BL/6 mice were each intraperitoneally injected with HpTx3 at a dose of 20 mg/kg, which was 4-fold greater than the maximum dose (5 mg/kg) and 100-fold greater than the minimum dose (0.2 mg/kg) that were used in analgesic experiments.

In series [10] the test system is hERG channel. Put plainly: Whole-cell patch-clamp, hERG channel in HEK293T cells. To be noted: 1 µM HpTx3, n = 3. It is filed as cell-based. The method, then:
The effect of HpTx3 on the hERG channel expressed in HEK293T cells was assayed using the whole cell patch-clamp technique according to the previous method with some modifications. The bathing solution contained (in mM): HEPES 10, MgCl2 1, CaCl2 25, KCl 5, NaCl 50 (pH 7.4, adjusted with 1 M NaOH). The suction pipettes solution contained (in mM): MgCl2 2.5, KCl 140, EGTA 11, HEPES 10 (pH 7.2, adjusted with KOH). The osmotic pressure of the two solutions was adjusted to 280 ± 5 mOsm/L with sucrose. The currents of the hERG channel were induced at −40 mV after a test potential of +30 mV from a holding potential of −80 mV.

For series [11], the system named is Nav1.7. To be noted: cited from earlier work. The source says:
In order to further understand the actions of HpTx3 on the Nav1.7 channel, we examined the effect of the toxin on the current–voltage (I–V) relationship of the Nav channel subtype. […] When the conductance–voltage (G–V) relationship and the steady-state inactivation of Nav1.7 before and after HpTx3 treatment were inve ...

The subject of series [12] is Nav1.1–1.8. To be noted: cited from earlier work.
Series [13] has as its system rodent models of acute and inflammatory pain. To be noted: cited from earlier work.
The mark [14] stands for this setting: HEK293T, whole-cell patch-clamp, mean ± SD, n = 4–6.

T7 sequence (Q15858 other isoform, or with tags, fused parts or gaps D816N): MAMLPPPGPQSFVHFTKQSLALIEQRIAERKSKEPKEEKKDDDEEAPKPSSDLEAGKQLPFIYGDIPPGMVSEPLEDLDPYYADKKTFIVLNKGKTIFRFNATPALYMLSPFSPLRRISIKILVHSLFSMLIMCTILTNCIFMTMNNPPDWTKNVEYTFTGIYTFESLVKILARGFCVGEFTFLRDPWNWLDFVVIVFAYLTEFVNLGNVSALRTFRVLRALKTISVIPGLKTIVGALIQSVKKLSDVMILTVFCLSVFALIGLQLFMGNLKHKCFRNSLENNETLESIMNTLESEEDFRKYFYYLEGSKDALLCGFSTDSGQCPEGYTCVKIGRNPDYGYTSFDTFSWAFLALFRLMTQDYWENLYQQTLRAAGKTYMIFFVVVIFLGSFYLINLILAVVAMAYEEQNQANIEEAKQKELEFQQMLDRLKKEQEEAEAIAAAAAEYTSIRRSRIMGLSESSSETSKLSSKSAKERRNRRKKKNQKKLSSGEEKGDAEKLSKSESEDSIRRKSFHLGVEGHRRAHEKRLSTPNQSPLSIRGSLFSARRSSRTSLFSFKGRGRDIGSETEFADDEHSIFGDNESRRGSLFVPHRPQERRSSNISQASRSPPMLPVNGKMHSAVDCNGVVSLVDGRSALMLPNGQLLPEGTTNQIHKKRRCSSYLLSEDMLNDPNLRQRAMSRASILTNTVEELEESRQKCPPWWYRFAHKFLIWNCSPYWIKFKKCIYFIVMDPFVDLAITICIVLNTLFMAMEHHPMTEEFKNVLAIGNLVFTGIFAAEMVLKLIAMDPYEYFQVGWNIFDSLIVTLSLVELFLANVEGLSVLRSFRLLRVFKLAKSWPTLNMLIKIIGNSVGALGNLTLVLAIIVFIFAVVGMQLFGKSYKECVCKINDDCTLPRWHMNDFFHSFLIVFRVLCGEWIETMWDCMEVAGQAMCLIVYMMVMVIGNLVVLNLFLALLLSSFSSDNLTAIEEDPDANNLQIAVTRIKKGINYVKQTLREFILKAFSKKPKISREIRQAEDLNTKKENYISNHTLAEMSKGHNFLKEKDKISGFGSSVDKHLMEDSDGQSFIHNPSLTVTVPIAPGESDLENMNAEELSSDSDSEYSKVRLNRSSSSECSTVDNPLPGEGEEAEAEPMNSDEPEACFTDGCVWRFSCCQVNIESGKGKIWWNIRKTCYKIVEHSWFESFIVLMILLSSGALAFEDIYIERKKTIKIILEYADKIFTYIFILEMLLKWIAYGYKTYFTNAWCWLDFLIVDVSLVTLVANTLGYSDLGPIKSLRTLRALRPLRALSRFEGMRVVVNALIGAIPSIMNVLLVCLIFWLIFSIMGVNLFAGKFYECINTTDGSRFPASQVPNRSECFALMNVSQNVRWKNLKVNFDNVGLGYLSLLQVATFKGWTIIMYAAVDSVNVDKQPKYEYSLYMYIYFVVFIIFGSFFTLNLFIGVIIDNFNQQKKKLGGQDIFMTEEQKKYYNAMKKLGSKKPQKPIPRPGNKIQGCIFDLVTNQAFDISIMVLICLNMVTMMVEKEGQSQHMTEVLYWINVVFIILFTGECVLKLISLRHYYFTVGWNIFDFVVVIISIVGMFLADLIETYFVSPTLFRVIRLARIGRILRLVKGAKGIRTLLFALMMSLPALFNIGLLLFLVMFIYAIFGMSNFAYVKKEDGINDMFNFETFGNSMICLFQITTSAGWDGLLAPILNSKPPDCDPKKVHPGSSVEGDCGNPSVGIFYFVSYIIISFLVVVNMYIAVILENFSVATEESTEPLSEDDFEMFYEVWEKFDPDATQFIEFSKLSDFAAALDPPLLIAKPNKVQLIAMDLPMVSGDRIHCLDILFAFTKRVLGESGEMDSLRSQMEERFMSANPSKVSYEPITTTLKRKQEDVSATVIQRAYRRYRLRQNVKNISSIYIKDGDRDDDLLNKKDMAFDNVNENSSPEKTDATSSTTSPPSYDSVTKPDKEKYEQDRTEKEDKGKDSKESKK
T7 sequence (Q07699 19-218, further chain): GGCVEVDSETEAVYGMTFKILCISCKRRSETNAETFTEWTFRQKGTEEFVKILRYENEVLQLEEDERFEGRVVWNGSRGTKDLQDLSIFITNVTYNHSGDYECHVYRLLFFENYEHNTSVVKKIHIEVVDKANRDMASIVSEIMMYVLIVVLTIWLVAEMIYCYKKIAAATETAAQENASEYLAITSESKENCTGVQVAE
T7 sequence (O60939 30-215, further chain): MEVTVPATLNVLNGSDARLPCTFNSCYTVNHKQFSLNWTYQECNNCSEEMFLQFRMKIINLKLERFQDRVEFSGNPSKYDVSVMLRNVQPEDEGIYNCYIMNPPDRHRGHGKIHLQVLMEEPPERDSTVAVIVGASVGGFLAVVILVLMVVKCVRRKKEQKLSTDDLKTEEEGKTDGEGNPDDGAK
T6 sequence (O60939 30-215): as the sequence (O60939 30-215, further chain) above
T6 sequence (Q07699 19-218, further chain): as the sequence (Q07699 19-218, further chain) above
T6 sequence (Q15858 other isoform, or with tags, fused parts or gaps): as the sequence (Q15858 other isoform, or with tags, fused parts or gaps D816N) above, with N816D counted along it

With `O=C1[O][Pt]2([NH][C@@H]3CCCC[C@H]3[NH]2)[O]C1=O` [Oxaliplatin], the “effect on nociceptive neuron excitability” value in series [1] is “increases nociceptive neuron excitability to result in neuropathic pain”.

What is called IC50 is the concentration needed to halve the response being measured. What is called inhibition is how much of the control response was suppressed. Turning to `CC[C@H](C)[C@@H]1NC(=O)[C@H](Cc2ccccc2)NC(=O)CNC(=O)[C@H](CCC(=O)O)NC(=O)[C@@H]2CSSC[C@H](NC(=O)[C@@H](N)CCC(=O)O)C(=O)NCC(=O)N[C@@H]([C@@H](C)O)C(=O)N[C@@H](CC(C)C)C(=O)N[C@@H](Cc3ccccc3)C(=O)N[C@@H](CO)C(=O)NCC(=O)N[C@H]3CSSC[C@H](NC1=O)C(=O)N[C@@H](CCCCN)C(=O)N[C@@H](CC(C)C)C(=O)N[C@@H](Cc1c[nH]c4ccccc14)C(=O)N[C@H](C(=O)N[C@@H](CCCNC(=N)N)C(=O)N[C@@H](Cc1ccc(O)cc1)C(=O)N[C@@H](CCC(=O)O)C(=O)N[C@@H](CCCNC(=N)N)C(=O)N[C@H](C(=O)N[C@@H](Cc1c[nH]c4ccccc14)C(N)=O)[C@@H](C)O)CSSC[C@H](NC(=O)[C@H](CC(=O)O)NC(=O)[C@H](C)NC(=O)[C@H](Cc1c[nH]cn1)NC(=O)[C@H]([C@@H](C)O)NC(=O)[C@H](CO)NC3=O)C(=O)N2` [HpTx3, Heteropodatoxin3] (H-ECGTLFSGCSTHADCCEGFICKLWCRYERTW-NH2; disulfide 2-16, 9-21, 15-25), the IC50 came out at 19.7 ± 0.49 µM in series [2] (setting [14]); 14.1 ± 2.5 µM in [3] (setting [14]); 18.5 ± 0.21 µM in series [4] (setting [14]); 0.136 ± 0.013 µM in series [7]; 3.13 ± 2.6 µM in [8] (HEK293T, mean ± SD, n = 6). For the same compound, in [2] (ratio of IC50), the “selectivity for Nav1.7 over Nav1.2” value amounted to 145 fold. Besides, the “selectivity for Nav1.7 over Nav1.3” value in series [3] (ratio of IC50) is 104 fold. Moreover, the “selectivity for Nav1.7 over Nav1.4” value in series [4] (ratio of IC50) is reported as 136 fold. Besides, the inhibition at 1 µM was found to be 12.8% in [5] (HEK-293T, 1 μM HpTx3, HEK293T, whole-cell patch-clamp, n = 4–6, read-out: inhibition of Nav1.5 currents); 46% in series [6]; 23.7% in series [8] (HEK-293T, 1 μM HpTx3, HEK293T, n = 6, read-out: inhibition of Nav1.7 D816N current). Further, the “selectivity for Nav1.7 over Nav1.5” value in series [5] (ratio of IC50) worked out at 122 fold. For the same compound, the “IC50 difference Nav1.7 D816N versus wild type Nav1.7” value in series [8] (ratio of IC50) came out at 23 fold. The course of symptoms result in series [9] (after 5 min and after 10 min) is “the symptoms became gradually weaker and disappeared completely after 10 min”. Moreover, in [9] (within 5 min after injection), the symptoms after injection result is “some discomfort symptoms such as body curling and writhing”. In addition, in [10], the “inhibition of hERG channel current” value is on record as “about 40%”.

Regarding ProTx-II: typical gating modifier toxin, the “shift of Nav1.7 channel activation in the depolarizing direction” value in series [11] was 31.1 mV. The “inhibition of sodium channel subtypes” value in [12] is “can inhibit multiple sodium channel subtypes (Nav1.1–1.8), but preferentially inhibits hNav1.7”. Moreover, the “efficacy in rodent models of acute and inflammatory pain” value in [13] was “not efficacious”.
